Assay results as given in patent publication US20070117743A1, “New antitumoral compounds” (priority 2003, published 2007).
Where two headings read alike, the source gives them in different places. Where a SMILES comes first, the peptide text is derived from it. Bridges are numbered along the chain shown (N, C = ends). [ ]: non-standard residue; d: D form. The star is where a group is joined. d(aIle) = CC[C@H](C)[C@@H](N)C(=O)O; d(aThr) = C[C@@H](O)[C@@H](N)C(=O)O; Hexanoyl(5-Me) = CC(C)CCCC(=O)*; Orn = NCCC[C@H](N)C(=O)O; Dha = C=C(N)C(=O)O

Legend:
Format in all cases: cell-based, human
[1] = tested on: K-562; test: SRB colorimetric assay of cell growth and viability, K-562; conditions: 48 hours exposure; for CC50: read-out: LC50 K-562
[2] = tested on: IGROV-1; test: SRB colorimetric assay of cell growth and viability, IGROV-1; conditions: 48 hours exposure
[3] = tested on: HT-29; test: SRB colorimetric assay of cell growth and viability, HT-29; conditions: 48 hours exposure; for GI50: read-out: GI50 HT-29; for CC50: read-out: LC50 HT-29
[4] = tested on: IGROV-ET; test: SRB colorimetric assay of cell growth and viability, IGROV-ET; conditions: 48 hours exposure; for CC50: read-out: LC50 IGROV-ET
[5] = tested on: SK-MEL-28; test: SRB colorimetric assay of cell growth and viability, SK-MEL-28; conditions: 48 hours exposure; for CC50: read-out: LC50 MEL-28
[6] = tested on: DU-145; test: SRB colorimetric assay of cell growth and viability, DU-145; conditions: 48 hours exposure
[7] = tested on: HeLa-APL; test: SRB colorimetric assay of cell growth and viability, HeLa-APL; conditions: 48 hours exposure; for CC50: read-out: LC50 HELA-APL
[8] = tested on: LoVo-Dox; test: SRB colorimetric assay of cell growth and viability, LoVo-Dox; conditions: 48 hours exposure; for CC50: read-out: LC50 LOVO-DOX
In short: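 Cells in RPMI 1640 with 10% FBS were seeded at 5×10^3 per well and left 18 hours drug-free before compounds (10 to 10^−8 μg/mL in DMSO:EtOH:PBS 0.5:0.5:99) were added for 48 hours. TCA-fixed cells were stained with SRB and read at 490 nm; triplicate wells gave GI, TGI and LC.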

[9] = tested on: HeLa; test: SRB colorimetric assay of cell growth and viability, HeLa; conditions: 48 hours exposure; for CC50: read-out: LC50 HELA
[10] = tested on: PANC-1; test: SRB colorimetric assay of cell growth and viability, PANC-1; conditions: 48 hours exposure; for CC50: read-out: LC50 PANC-1
[11] = tested on: LoVo; test: SRB colorimetric assay of cell growth and viability, LoVo; conditions: 48 hours exposure; for CC50: read-out: LC50 LOVO
[12] = tested on: SK-BR-3; test: SRB colorimetric assay of cell growth and viability, SK-BR-3; conditions: 48 hours exposure
[13] = tested on: A-549; test: SRB colorimetric assay of cell growth and viability, A-549; conditions: 48 hours exposure; for GI50: read-out: GI50 A-549; for CC50: read-out: LC50 A-549
[14] = tested on: LNCaP; test: SRB colorimetric assay of cell growth and viability, LNCaP; conditions: 48 hours exposure; for GI50: read-out: GI50 LN-caP; for CC50: read-out: LC50 LN-caP

C=C1NC(=O)[C@H](Cc2ccccc2)NC(=O)[C@@H](C(C)C)NC(=O)[C@@H]([C@@H](C)CC)NC(=O)[C@H](NC(=O)[C@H](NC(=O)[C@H](CCCN)NC(=O)[C@H]2CCCN2C(=O)[C@H](NC(=O)[C@@H](NC(=O)[C@@H](NC(=O)[C@H](NC(=O)CCCC(C)C)C(C)C)[C@@H](C)O)C(C)C)C(C)C)[C@@H](C)CC)[C@@H](C)OC(=O)[C@H](C(C)C)NC1=O [Compound 67, [Dha^2]-KF] ({Hexanoyl(5-Me)}-[dV]TV[dV][dP][Orn][d(aIle)][d(aThr)][d(aIle)][dV]F[Dha]V; ester 8-C)
GI50 ([1]; SRB): 2920 nM
TGI K-562 ([1]; SRB): 6.83E−06 Molar
CC50 ([1]; SRB): ≥ 6830 nM
GI50 ([2]; SRB): 553 nM
LC50 (concentration causing 50% net cell killing) ([2]; SRB): 4590 nM
TGI IGROV ([2]; SRB): 1.58E−06 Molar
TGI HT-29 ([3]; SRB): 9.63E−07 Molar
GI50 ([3]; SRB): 347 nM
CC50 ([3]; SRB): 4170 nM
GI50 ([4]; SRB): 390 nM
TGI IGROV-ET ([4]; SRB): 1.33E−06 Molar
CC50 ([4]; SRB): 4530 nM
GI50 ([5]; SRB): 1130 nM
TGI MEL-28 ([5]; SRB): 2.25E−06 Molar
CC50 ([5]; SRB): 4510 nM
GI50 ([6]; SRB): 915 nM
LC50 (concentration causing 50% net cell kill) ([6]; SRB): 3400 nM
TGI DU-145 ([6]; SRB): 1.77E−06 Molar
GI50 ([7]; SRB): 1090 nM
TGI HELA-APL ([7]; SRB): 2.03E−06 Molar
CC50 ([7]; SRB): 3750 nM
GI50 ([8]; SRB): 264 nM
TGI LOVO-DOX ([8]; SRB): 5.61E−06 Molar
CC50 ([8]; SRB): 2470 nM
GI50 ([9]; SRB): 1150 nM
TGI HELA ([9]; SRB): 2.15E−06 Molar
CC50 ([9]; SRB): 4000 nM
GI50 ([10]; SRB): ≥ 6830 nM
TGI PANC-1 ([10]; SRB): 6.83E−06 Molar
CC50 ([10]; SRB): ≥ 6830 nM
GI50 ([11]; SRB): 173 nM
TGI LOVO ([11]; SRB): 3.40E−07 Molar
CC50 ([11]; SRB): 669 nM
GI50 ([12]; SRB): 320 nM
LC50 ([12]; SRB): 2210 nM
TGI SK-BR-3 ([12]; SRB): 5.56E−07 Molar
TGI A-549 ([13]; SRB): 2.70E−06 Molar
GI50 ([13]; SRB): 1440 nM
CC50 ([13]; SRB): 5060 nM
TGI LN-caP ([14]; SRB): 4.60E−06 Molar
GI50 ([14]; SRB): 1830 nM
CC50 ([14]; SRB): ≥ 6830 nM

[(c/t)-4-Me-cHexa^14]-KF [Compound 14]
GI50 [1]: 2020 nM
TGI K-562 [1]: 3.58E−06 Molar
CC50 [1]: 6320 nM
GI50 [2]: 382 nM
LC50 (concentration causing 50% net cell killing) [2]: 3470 nM
TGI IGROV [2]: 1.22E−06 Molar
TGI HT-29 [3]: 4.22E−07 Molar
GI50 [3]: 189 nM
CC50 [3]: 1830 nM
GI50 [4]: 846 nM
TGI IGROV-ET [4]: 1.94E−06 Molar
CC50 [4]: 4470 nM
GI50 [5]: 886 nM
TGI MEL-28 [5]: 1.89E−06 Molar
CC50 [5]: 4010 nM
GI50 [6]: 612 nM
LC50 (concentration causing 50% net cell kill) [6]: 3360 nM
TGI DU-145 [6]: 1.48E−06 Molar
GI50 [7]: 611 nM
TGI HELA-APL [7]: 1.72E−06 Molar
CC50 [7]: 4560 nM
GI50 [8]: 144 nM
TGI LOVO-DOX [8]: 2.88E−07 Molar
CC50 [8]: 576 nM
GI50 [9]: 779 nM
TGI HELA [9]: 1.84E−06 Molar
CC50 [9]: 4370 nM
GI50 [10]: 2010 nM
TGI PANC-1 [10]: 6.71E−06 Molar
CC50 [10]: 6710 nM
GI50 [11]: 99.3 nM
TGI LOVO [11]: 2.34E−07 Molar
CC50 [11]: 550 nM
GI50 [12]: 152 nM
LC50 [12]: 657 nM
TGI SK-BR-3 [12]: 3.17E−07 Molar
TGI A-549 [13]: 2.15E−06 Molar
GI50 [13]: 933 nM
CC50 [13]: 4950 nM
TGI LN-caP [14]: 2.87E−06 Molar
GI50 [14]: 1340 nM
CC50 [14]: 6110 nM

[D,L-Ser^2]-KF [Compound 64]
GI50 ([1]; SRB): ≥ 6750 nM
TGI K-562 ([1]; SRB): 6.75E−06 Molar
CC50 ([1]; SRB): ≥ 6750 nM
GI50 [2]: ≥ 6750 nM
LC50 (concentration causing 50% net cell killing) [2]: ≥ 6750 nM
TGI IGROV [2]: 6.75E−06 Molar
TGI HT-29 ([3]; SRB): 6.75E−06 Molar
GI50 ([3]; SRB): ≥ 6750 nM
CC50 ([3]; SRB): ≥ 6750 nM
GI50 [4]: ≥ 6750 nM
TGI IGROV-ET [4]: 6.75E−06 Molar
CC50 [4]: ≥ 6750 nM
GI50 [5]: ≥ 6750 nM
TGI MEL-28 [5]: 6.75E−06 Molar
CC50 [5]: ≥ 6750 nM
GI50 [6]: ≥ 6750 nM
LC50 (concentration causing 50% net cell kill) [6]: ≥ 6750 nM
TGI DU-145 [6]: 6.75E−06 Molar
GI50 ([7]; SRB): ≥ 6750 nM
TGI HELA-APL ([7]; SRB): 6.75E−06 Molar
CC50 ([7]; SRB): ≥ 6750 nM
GI50 ([8]; SRB): ≥ 6750 nM
TGI LOVO-DOX ([8]; SRB): 6.75E−06 Molar
CC50 ([8]; SRB): ≥ 6750 nM
GI50 ([9]; SRB): ≥ 6750 nM
TGI HELA ([9]; SRB): 6.75E−06 Molar
CC50 ([9]; SRB): ≥ 6750 nM
GI50 ([10]; SRB): ≥ 6750 nM
TGI PANC-1 ([10]; SRB): 6.75E−06 Molar
CC50 ([10]; SRB): ≥ 6750 nM
GI50 ([11]; SRB): ≥ 6750 nM
TGI LOVO ([11]; SRB): 6.75E−06 Molar
CC50 ([11]; SRB): ≥ 6750 nM
GI50 [12]: ≥ 6750 nM
LC50 [12]: ≥ 6750 nM
TGI SK-BR-3 [12]: 6.75E−06 Molar
TGI A-549 ([13]; SRB): 6.75E−06 Molar
GI50 ([13]; SRB): ≥ 6750 nM
CC50 ([13]; SRB): ≥ 6750 nM
TGI LN-caP [14]: 3.99E−06 Molar
GI50 [14]: 1800 nM
CC50 [14]: ≥ 6750 nM
